Data on two molecules can be found in US6194424A, “Arylacetamides and their use as medicaments” (Bayer Aktiengesellschaft, priority 1996, dated 2001).

The assay has as its system ApoB-100-associated lipoproteins (HepG2 cells). The assay can be described thus: Inhibition of the release of ApoB-100-associated lipoproteins from HepG2 liver cells (immunoassay of culture supernatant). Type of assay: cell-based. The settings on record: Homo sapiens, substance concentration at which light absorption (450 nm) is inhibited by 50% vs solvent control, read-out: Apo B IC50. How it is done:
The test for detection of the inhibition of the release of ApoB-100-associated lipoproteins from liver cells was carried out in vitro using cultured liver cells, preferably using cells of the human line HepG2. These cells are cultured under standard conditions in medium for the culture of eucaryotic cells, preferably in RPMI 1640 using 10% foetal calf serum. HepG2 cells synthesize and secrete into the culture supernatant ApoB-100-associated lipoprotein particles, which in principle are of similar construction to the VLDL or LDL particles which are to be, found in the plasma.
These particles can be detected using an immunoassay for human LDL. This immunoassay is carried out using antibodies which have been induced under standard conditions in the rabbit to human LDL. The anti-LDL antibodies (rabbit anti-LDL-Ab) were purified by affinity chromatography on an immunosorbent using human LDL. These purified rabbit anti-LDL-Ab are adsorbed onto the surface of plastic. […] The immune complex on the plastic surface is detected using monoclonal antibodies which have been induced against human LDL and purified according to standard conditions. […] After acidification of the reaction mixture with H2 SO4, the specific light absorption at 450 nm is determined, which is a measure of the amount of ApoB-100-associated particles which have been secreted into the culture supernatant by the HepG2 cells. […]

`Cc1cc(C)c2c3ccccc3n(Cc3ccc([C@@H](C(=O)Nc4ccccc4)C4CCCC4)cc3)c2n1` [Example 2]: the IC50 (in general, the concentration that gives 50% inhibition) was found to be 8.2 nM. With `CCCCCNC(=O)[C@H](c1ccc(Cn2c3ccccc3c3c(C)cc(C)nc32)cc1)C1CCCC1` [Example 20], the concentration for half-maximal inhibition (IC50) came out at 12.5 nM.
